Among the data in ChEMBL document CHEMBL4325834, “De Novo Molecular Design of a Novel Octapeptide That Inhibits In Vivo Melanogenesis and Has Great Transdermal Ability” (J Med Chem, 2018) are Activity, Drug uptake and inhibition values, retold here.

Calls of active or inactive are those of the source. No cut-off for these calls is given here. Where a SMILES comes first, the peptide text is derived from it.

In data set [1] the test system is Cavia porcellus. Put plainly: Protection against UVB-induced pigmentation in Dunkin-Hartley guinea pig assessed as increase in whitening at 1 to 2 mM using PG solvent administered topically post UV radiation for 5 days/week for two consecutive weeks for a total 10 days by Fontana-Masson-staining based assay. In kind it is functional, organism-based.
The nature of data set [2]: Drug uptake in skin dermis of brown guinea pig at 2 mM dosed topically after 30 mins using FITC-labelled compound by H and E staining-based fluorescence microscopy. Format: ADME, organism-based, Cavia porcellus. Particulars: in vivo, topical_or_ocular, 0.5 h, 2000 µM.
The subject of data set [3] is Cavia porcellus. Briefly: Prophylactic protection against UVB-induced pigmentation in Dunkin-Hartley guinea pig pigmentation model assessed as increase in whitening administered topically 6 hrs before UV radiation every day for 2 weeks. In kind it is functional, organism-based.
Data set [4] concerns B16. Briefly: Downregulation of TYR protein expression in mouse B16 cells after 72 hrs by Western blot analysis. Format: functional, cell-based. (Immunoblotting shows a protein as a band on a membrane.)
Data set [5] in a line: Drug uptake in skin epidermis of brown guinea pig at 2 mM dosed topically after 30 mins using FITC-labelled compound by H and E staining-based fluorescence microscopy. Format: ADME, organism-based, Cavia porcellus. The settings on record: in vivo, topical_or_ocular, 0.5 h, 2000 µM.
The target of data set [6] is T1, Tyrosinase (Mus musculus) (UniProt P11344).
T1 sequence (whole entry): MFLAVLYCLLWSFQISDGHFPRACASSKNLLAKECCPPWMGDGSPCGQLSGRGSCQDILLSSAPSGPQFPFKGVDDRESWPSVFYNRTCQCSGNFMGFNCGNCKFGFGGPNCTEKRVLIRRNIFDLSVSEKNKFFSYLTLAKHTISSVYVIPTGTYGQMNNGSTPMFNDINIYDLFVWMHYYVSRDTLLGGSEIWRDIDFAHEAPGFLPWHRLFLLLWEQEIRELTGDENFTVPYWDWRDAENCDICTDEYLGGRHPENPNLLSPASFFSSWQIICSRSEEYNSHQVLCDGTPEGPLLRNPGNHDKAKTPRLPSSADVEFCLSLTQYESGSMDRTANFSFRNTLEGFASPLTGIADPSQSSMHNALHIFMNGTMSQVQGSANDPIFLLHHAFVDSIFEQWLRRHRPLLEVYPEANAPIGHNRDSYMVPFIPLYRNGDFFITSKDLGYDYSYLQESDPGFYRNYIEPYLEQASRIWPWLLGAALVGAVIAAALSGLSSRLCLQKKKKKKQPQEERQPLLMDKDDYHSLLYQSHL
Put plainly: Inhibition of TYR activity in mouse B16 cells 20 uM using L-dopa as substrate after 72 hrs relative to control. Format: cell-based.

In data set [7] the test system is B16. Briefly: Downregulation of MITF protein expression in mouse B16 cells after 72 hrs by Western blot analysis. In kind it is functional, cell-based.
The species named for a further data set is Mus musculus. Briefly: Effect on JNK phosphorylation in mouse B16 cells up to 80 uM after 72 hrs by Western blot analysis. Format: cell-based.
The subject of data set [8] is LAD2. Briefly: Proinflammatory activity in human LAD2 cells assessed as increase in mast-cell degranulation by measuring beta-hexosaminidase release at 1 mM preincubated for 30 mins followed 4-nitrophenyl-N-acetyl-beta-D-glucosaminide substrate addition and measured after 90 mins by fluorescence-based microplate reader analysis relative to control. In kind it is ADME. Particulars: lad2, 1.5 h, 1000 µM.

A further data set concerns HaCaT. Put plainly: Cytotoxicity against human HaCaT cells up to 150 uM by MTT assay relative to control. In kind it is cell-based.
Data set [9] relates to B16. Briefly: Cytotoxicity against mouse B16 cells up to 150 uM by MTT assay relative to control. In kind it is cell-based.
The target in data set [10] is T1, Tyrosinase (Mus musculus). Put plainly: Inhibition of TYR activity in mouse B16 cells assessed as melanin levels post exfoliation at 20 uM after 72 hrs by spectrophotometric analysis relative to control. Format: cell-based. Also noted: scale not given: the % may be the effect or the level left.
Data set [11] has as its system Cavia porcellus. Briefly: Anti-melanogenic activity in UVB-induced pigmentation Dunkin-Hartley guinea pig model assessed as inhibition of UV-induced melanin production in epidermis basal layer at 1 to 2 mM administered topically using PG solvent 6 hrs before UV radiation every day for 2 weeks by Fontana-Masson-staining based assay. Format: functional, organism-based.

Data set [12] can be described thus: Drug uptake in skin basal layer of brown guinea pig at 2 mM dosed topically after 2 to 4 hrs using FITC-labelled compound by H and E staining-based fluorescence microscopy. Particulars: in vivo, topical_or_ocular, 2000 µM. Format: ADME, organism-based, Cavia porcellus.
Data set [13] relates to LAD2. Put plainly: Proinflammatory activity in human LAD2 cells assessed as increase in mast-cell degranulation by measuring beta-hexosaminidase release at 0.25 mM preincubated for 30 mins followed 4-nitrophenyl-N-acetyl-beta-D-glucosaminide substrate addition and measured after 90 mins by fluorescence-based microplate reader analysis relative to control. The settings on record: lad2, 1.5 h, 250 µM. In kind it is ADME.

The term inhibition denotes the relative decrease from the control value, in per cent.

Turning to `CC(C)[C@H](NC(=O)[C@H](CCCNC(=N)N)NC(=O)[C@H](Cc1ccccc1)NC(=O)[C@H](CS)NC(=O)[C@H](CCCNC(=N)N)NC(=O)[C@@H](N)[C@@H](C)O)C(=O)N[C@@H](CS)C(=O)N[C@@H](CO)C(=O)O` (H-TRCFRVCS-OH), the result in the data set on Cavia porcellus [1] and in the data set with Cavia porcellus [11] was Active. Further, the Drug uptake entry in data set [2] was “Active”; in [5], “Active”; in [12], “Not Active”. For the same compound, the Activity result with Cavia porcellus [3] was “Dose-dependent effect”; with LAD2 [8], 9.41%; with HaCaT, 9%; in the data set with B16 [9] it was 10%; in data set [10], 52.2%; in the data set with LAD2 [13] it was 7.19%. For the same compound, the inhibition result with B16 [4] and in the data set with B16 [7] was “Active” throughout. In data set [6], this compound showed an inhibition of 25.7%. Further, the outcome in the data set listed under Mus musculus was inactive.
